Read-outs that look alike come from different tables or passages of the source. Blank lines part the entries; values can stand above or below the compound they belong to.
Tests used:
[1] = Pharmacokinetics of dabigatran etexilate, dabigatran and dabigatran acylglucuronide in plasma after 150 mg dabigatran etexilate with or without simvastatin; type: in vivo, human
Experimental: An open-label, two-period, single sequence clinical study was conducted. After an overnight fast and drinking 200 mL of water one hour before drug administration, eligible subjects were administered with a capsule of dabigatran etexilate 150 mg ([…]®) on the first day of the study. Blood samples for pharmacokinetic and pharmacodynamic analyses were obtained using EDTA tubes and citrate tubes, respectively. […] Subjects remained at fasting stage until 4 h after the administration. […] To ensure compliance, subjects visited the study site for every drug administration. […] Blood samples were obtained at the same time point scheduled as the first day of the study. Adverse events were collected during the entire study period. This study was conducted in accordance with the Declaration of Helsinki, good clinical practice, and local regulation. The study was approved by the Institutional Review Board at Korea University Guro Hospital (2018GR0336, date of approval: 11 October 2018) and registered at ClinicalTrials.gov (NCT03728101). Separate plasma samples were kept frozen below -70 °C until analysis. Plasma concentrations of dabigatran etexilate, dabigatran, and dabigatran acylglucuronide were quantified using a high-performance liquid chromatography (Nanospace series SI-2, Shiseido Co., Ltd., Tokyo, Japan) coupled with tandem mass spectrometry (API4000, AB SCIEX LLC, Framingham, MA, USA) method. The method was validated in terms of selectivity, linearity, precision, accuracy, recovery, matrix effect, and stability prior to the analysis. In brief, 100 μL of plasma samples were deproteinized using 400 μL of acetonitrile and centrifuged at 13,000× g for 20 min. Dabigatran-d3 was used as an internal standard. The supernatants were evaporated and then dissolved in a 300 μL mobile phase consisting of acetonitrile and 10 mM ammonium formate (215:85, v/v). These samples were injected onto an Atlantis HILIC SilicaTM column (2.1 mm × 150 mm, 3 μm, Waters, Milford, MA, USA) at a flow rate of 0.3 mL/min. The mass spectrometer equipped with an electrospray ionization source was operated in a positive ion mode. Selected ion pairs of m/z 629.464→290.100 for dabigatran etexilate, m/z 472.300→289.100 for dabigatran, m/z 648.382→289.100 for dabigatran acylglucuronide were detected. […] Pharmacokinetic parameters of dabigatran etexilate, dabigatran, and dabigatran acylglucuronide were derived from noncompartmental analysis using Phoenix Winnonlin® version 8.3 (Certara, Princeton, NJ, USA). Observed values from individual time-concentration profiles were used for Cmax and Tmax. Area under the time-concentration curve (AUC) was calculated using linear-up log-down trapezoidal rule. The AUC from 0 h to infinity (AUCinf) was calculated as follows: AUCinf = AUC + Ct/ke, where Ct was the last plasma concentration and ke was the elimination rate constant. […] Mean residence time (MRT) was calculated as area under the moment curve from time of dosing to the last measurable concentration divided by AUClast. All statistical analyses were performed using SAS® version 9.4 (SAS Institute Inc., Cary, NC, USA). Descriptive statistics were used to summarize demographic, pharmacokinetic, and pharmacodynamic data. A linear mixed effects model was used to compare Cmax, AUClast, and AUCinf between two treatment periods.

thrombin generation = assay: Thrombin generation assay (TGA) in plasma of dosed subjects; type: in vivo, human
Experimental: An open-label, two-period, single sequence clinical study was conducted. After an overnight fast and drinking 200 mL of water one hour before drug administration, eligible subjects were administered with a capsule of dabigatran etexilate 150 mg ([…]®) on the first day of the study. Blood samples for pharmacokinetic and pharmacodynamic analyses were obtained using EDTA tubes and citrate tubes, respectively. […] Subjects remained at fasting stage until 4 h after the administration. […] To ensure compliance, subjects visited the study site for every drug administration. […] Blood samples were obtained at the same time point scheduled as the first day of the study. Adverse events were collected during the entire study period. This study was conducted in accordance with the Declaration of Helsinki, good clinical practice, and local regulation. […] TGA was performed using a Technothrombin® TGA kit (Technoclone, Vienna, Austria) on a fully automated, computer-controlled microplate reader (Flexstation 3; Molecular Devices, San Jose, CA, USA) with a 360 nm excitation wavelength and 460 nm emission wavelength. In brief, 30 μL of plasma samples were mixed with 25 μL of 400 μmol/L fluorogenic substrate ([…]; Bachem, Bubendorf, Switzerland). The assay was initiated by dispensing 10 μL of 5 pmol/L recombinant human tissue factor lipidated with synthetic phospholipids and 10 μL of 15 mmol/L CaCl2. TGA results are expressed as Cmax, AUC, Tmax, and lag time. For pharmacodynamic assessment, Phoenix Winnonlin® version 8.3 (Pharsight, Mountain View, CA, USA) was used to calculate AUEC with the linear trapezoidal method and Rmax was directly determined from individual profiles.

coagulation = assay: Coagulation assay (aPTT, PT, dPT, TT, fibrinogen) in plasma of dosed subjects; type: in vivo, human
Experimental: An open-label, two-period, single sequence clinical study was conducted. After an overnight fast and drinking 200 mL of water one hour before drug administration, eligible subjects were administered with a capsule of dabigatran etexilate 150 mg ([…]®) on the first day of the study. Blood samples for pharmacokinetic and pharmacodynamic analyses were obtained using EDTA tubes and citrate tubes, respectively. […] Subjects remained at fasting stage until 4 h after the administration. […] To ensure compliance, subjects visited the study site for every drug administration. […] Blood samples were obtained at the same time point scheduled as the first day of the study. Adverse events were collected during the entire study period. This study was conducted in accordance with the Declaration of Helsinki, good clinical practice, and local regulation. The study was approved by the Institutional Review Board at Korea University Guro Hospital (2018GR0336, date of approval: 11 October 2018) and registered at ClinicalTrials.gov (NCT03728101). Anticoagulant assays of aPTT, PT, dPT, TT, and fibrinogen were measured using STA® Compact Max (Stago, Asnieres, France) according to the manufacturer's instructions. […] To measure aPTT, 50 μL of plasma sample was placed in a cuvette in the presence of STA®-PTT (50 μL) and 50 μL of 0.025 M CaCl2. For fibrinogen, 7.5 μL of plasma which was automatically diluted with Owren-Koller buffer was placed into a cuvette and then 50 μL of […] was added. For pharmacodynamic assessment, Phoenix Winnonlin® version 8.3 (Pharsight, Mountain View, CA, USA) was used to calculate AUEC with the linear trapezoidal method and Rmax was directly determined from individual profiles.

[2] = cited from earlier work
recombinant CES1A1 = conditions: cited from earlier work
CES1 = conditions: in vitro; cited from earlier work
[3] = co-administered with simvastatin vs alone
[4] = human, oral, 150 mg dabigatran etexilate alone, plasma, mean (SD)
[5] = dabigatran with simvastatin, mean (SD)
[6] = before dabigatran etexilate administration, period with simvastatin 40 mg once daily, mean (SD)
[7] = before vs after once daily simvastatin for 7 days

- CL/F ([1]; 150 mg dabigatran etexilate alone, mean (SD)): 362.3 (331.8) L/h
- Tmax ([1]; 150 mg dabigatran etexilate alone, median (min–max)): 2 (1–4) h
- CL/F ([1]; co-administered with simvastatin 40 mg once daily, day 7, mean (SD)): 275.8 (197.4) L/h
- AUClast with simvastatin as % of value when administered alone [1, 3]: 121%
- Cmax with simvastatin as % of value when administered alone [1, 3]: 124%
- increase of AUClast after simvastatin co-administration ([1]; compared to dabigatran administered alone): 21%
- AUC(0-inf) [1, 4]: 664 ng·h/mL
- AUC(0-t) [1, 4]: 617 ng·h/mL
- half-life ([1]; human, plasma, oral, 150 mg dabigatran etexilate alone, mean (SD)): 6.1 h
- Cmax ([1]; human, plasma, oral, 150 mg dabigatran etexilate alone, mean (SD), read-out: Cmax): 87 ng/mL
- MRT ([1]; human, plasma, oral, 150 mg dabigatran etexilate alone, mean (SD), read-out: MRT): 7.1 h
Structure (SMILES): [H]/N=C(/N)c1ccc(NCc2nc3cc(C(=O)N(CCC(=O)O)c4ccccn4)ccc3n2C)cc1 [Dabigatran]
- Thrombin Generation AUC AUEC (thrombin generation; dabigatran alone, mean (SD)): 84,994.8 (14,977.1) nM∙min∙h
- Thrombin Generation AUC Rmax (thrombin generation; dabigatran alone, mean (SD)): 2423.6 (734.9) nM∙min
- Thrombin Generation Lag time AUEC (thrombin generation; dabigatran alone, mean (SD)): 131.7 (20.8) min∙h
- Thrombin Generation Lag time Rmax (thrombin generation; dabigatran alone, mean (SD)): 7.8 (1.7) min
- Thrombin Generation AUC AUEC (thrombin generation; [5]): 79,286.4 (10,676.3) nM∙min∙h
- Thrombin Generation AUC Rmax (thrombin generation; [5]): 2231.7 (326.0) nM∙min
- Thrombin Generation Lag time AUEC (thrombin generation; [5]): 128.5 (20.1) min∙h
- Thrombin Generation Lag time Rmax (thrombin generation; [5]): 8.0 (1.5) min
- Fibrinogen AUEC (coagulation; dabigatran alone, mean (SD)): 6249.8 (1133.1) h∙mg/dL
- Fibrinogen Rmax (coagulation; dabigatran alone, mean (SD)): 288.0 (55.9) mg/dL
- PT (INR) AUEC (coagulation; dabigatran alone, mean (SD)): 26.9 (1.4)
- PT (INR) Rmax (coagulation; dabigatran alone, mean (SD)): 1.3 (0.1)
- PT (sec) AUEC (coagulation; dabigatran alone, mean (SD)): 344.9 (14.3) s∙h
- PT (sec) Rmax (coagulation; dabigatran alone, mean (SD)): 16.6 (1.4) s
- TT AUEC (coagulation; dabigatran alone, mean (SD)): 1690.1 (535.9) s∙h
- TT Rmax (coagulation; dabigatran alone, mean (SD)): 169.2 (74.0) s
- aPTT AUEC (coagulation; dabigatran alone, mean (SD)): 1203.1 (153.1) s∙h
- aPTT Rmax (coagulation; dabigatran alone, mean (SD)): 69.5 (13.8) s
- dPT (1:256) AUEC (coagulation; dabigatran alone, mean (SD)): 1404.8 (184.7) s∙h
- dPT (1:256) Rmax (coagulation; dabigatran alone, mean (SD)): 87.5 (19.2) s
- Fibrinogen AUEC (coagulation; [5]): 6040.9 (758.3) h∙mg/dL
- Fibrinogen Rmax (coagulation; [5]): 309.3 (96.0) mg/dL
- PT (INR) AUEC (coagulation; [5]): 27.7 (1.2)
- PT (INR) Rmax (coagulation; [5]): 1.4 (0.1)
- PT (sec) AUEC (coagulation; [5]): 353.8 (12.3) s∙h
- PT (sec) Rmax (coagulation; [5]): 17.2 (1.4) s
- TT AUEC (coagulation; [5]): 1976.2 (643.8) s∙h
- TT Rmax (coagulation; [5]): 180.7 (50.4) s
- aPTT AUEC (coagulation; [5]): 1235.7 (131.7) s∙h
- aPTT Rmax (coagulation; [5]): 71.7 (12.2) s
- dPT (1:256) AUEC (coagulation; [5]): 1482.9 (144.9) s∙h
- dPT (1:256) Rmax (coagulation; [5]): 92.5 (15.3) s
- influence of atorvastatin on pharmacokinetics or pharmacodynamics of dabigatran ([2]; healthy volunteers): No influence
- fraction excreted via urine ([2]; intravenous dabigatran): 85%

Structure (SMILES): CCC(C)(C)C(=O)O[C@H]1C[C@@H](C)C=C2C=C[C@H](C)[C@H](CC[C@@H]3C[C@@H](O)CC(=O)O3)[C@H]21 [Simvastatin]
- Thrombin Generation Assay AUC (endogenous thrombin potential), baseline (thrombin generation; [6]): 4073.1 (642.2) nM∙min
- Thrombin Generation Assay Tmax, baseline (thrombin generation; [6]): 7.3 (0.8) min
- Thrombin Generation Assay lag time, baseline (thrombin generation; [6]): 3.5 (0.5) min
- anticoagulant effect of simvastatin without dabigatran, thrombin generation (thrombin generation; [7]): no significant difference
- Fibrinogen, baseline (coagulation; [6]): 259.3 (39.4) mg/dL
- PT (INR), baseline (coagulation; [6]): 1.0 (0.1) INR
- PT, baseline (coagulation; [6]): 13.7 (0.6) s
- TT, baseline (coagulation; [6]): 16.2 (0.9) s
- aPTT, baseline (coagulation; [6]): 40.4 (3.3) s
- dPT, baseline (coagulation; [6]): 43.2 (1.8) s
- anticoagulant effect of simvastatin without dabigatran, coagulation assays (coagulation; [7]): no significant difference
- effect on imidapril hydrolase activity (recombinant CES1A1): inhibitory effects
- effect on CES1-mediated hydrolysis of clopidogrel (CES1): can inhibit
- elimination half-life [2]: about 2.8 h

Structure (SMILES): CCC(C)(C)C(=O)O[C@H]1C[C@@H](C)C=C2C=C[C@H](C)[C@H](CC[C@@H](O)C[C@@H](O)CC(=O)O)[C@H]21 [simvastatin acid]
- Time to reach Cmax (Tmax) ([2]; human, in vivo): ~4.2 h
- elimination half-life ([2]; human, in vivo): ~4.4 h

From PMC10056008 (Pharmaceuticals, 2023)
